From ChEMBL document CHEMBL1201862, “PubChem BioAssay data set” (2004)
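Step 1: Grow cells in 96-well plates. Step 2: Expose to compound for 48 hours at 5 concentrations. Step 3: Interpolate endpoints linearly; if unreached, use highest concentration. GI50 marks 50% less growth.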 Calls of active or inactive are those of the source. No stated cut-off is given here; in the data, active = GI50 up to about 1.1 µM and inactive = higher.

Key:
Test in all cases: inhibition of tumour cell growth, NCI panel, 48 h
NCI-H460 = test system: NCI-H460
OVCAR-3 = test system: OVCAR-3
M14 = test system: M14
OVCAR-5 = test system: OVCAR-5
UACC-257 = test system: UACC-257
CAKI-1 = test system: CAKI-1
SW-620 = test system: SW-620
SF-268 = test system: SF-268
HCT-116 = test system: HCT-116
SK-OV-3 = test system: SK-OV-3
SNB-19 = test system: SNB-19
U-251 = test system: U-251
A549 = test system: A549
SK-MEL-2 = test system: SK-MEL-2
K562 = test system: K562
UACC-62 = test system: UACC-62
HL-60 = test system: HL-60
A498 = test system: A498
RXF 393 = test system: RXF 393
RPMI-8226 = test system: RPMI-8226

Structure (SMILES)	GI50 (NCI-H460)	GI50 (OVCAR-3)	GI50 (M14)	GI50 (OVCAR-5)	GI50 (UACC-257)	GI50 (CAKI-1)	GI50 (SW-620)	GI50 (SF-268)	GI50 (HCT-116)	GI50 (SK-OV-3)	GI50 (SNB-19)	GI50 (U-251)	GI50 (A549)	GI50 (SK-MEL-2)	GI50 (K562)	GI50 (UACC-62)	GI50 (HL-60)	GI50 (A498)	GI50 (RXF 393)	GI50 (RPMI-8226)
CC1=NC(=O)CNN1C1=NNC2(C(=O)N1)c1ccccc1-c1ccccc12	> 100 µM (inactive)	> 100 µM (inactive)	> 100 µM (inactive)	> 100 µM (inactive)	> 100 µM (inactive)	> 100 µM (inactive)	> 100 µM (inactive)	> 100 µM (inactive)	> 100 µM (inactive)	> 100 µM (inactive)	> 100 µM (inactive)	> 100 µM (inactive)	> 100 µM (inactive)	> 100 µM (inactive)	> 100 µM (inactive)	> 100 µM (inactive)	> 100 µM (inactive)	> 100 µM (inactive)	> 100 µM (inactive)	
OC1C2CCC3C2CC(C(O)(c2ccccc2)c2ccccc2)C13 (centres undefined)	41.3 µM (inactive)	29.9 µM (inactive)	65.8 µM (inactive)	> 100 µM (inactive)	24.6 µM (inactive)	40 µM (inactive)	> 100 µM (inactive)	> 100 µM (inactive)	36.1 µM (inactive)	> 100 µM (inactive)	> 100 µM (inactive)	70.3 µM (inactive)	36.6 µM (inactive)	18.4 µM (inactive)	18.2 µM (inactive)	47.5 µM (inactive)		37 µM (inactive)	34.7 µM (inactive)	
Cc1c2c(cc3c1[nH]c1ccccc13)C(c1ccc(Cl)cc1)=NCC2	0.267 µM (active)	0.29 µM (active)		7.78 µM (inactive)	0.621 µM (active)		0.356 µM (active)	0.598 µM (active)	0.542 µM (active)	2.67 µM (inactive)	0.355 µM (active)	0.608 µM (active)	0.665 µM (active)	0.711 µM (active)	0.328 µM (active)	0.452 µM (active)	0.288 µM (active)	0.124 µM (active)	0.465 µM (active)	0.497 µM (active)
N#CCCN(CCN(CCC#N)C(=O)Nc1ccccc1)C(=O)Nc1ccccc1	68.5 µM (inactive)		> 100 µM (inactive)	> 100 µM (inactive)	> 100 µM (inactive)		> 100 µM (inactive)	28.5 µM (inactive)	49.3 µM (inactive)	28.6 µM (inactive)	32.7 µM (inactive)	39.6 µM (inactive)	80.2 µM (inactive)	> 100 µM (inactive)	> 100 µM (inactive)	> 100 µM (inactive)	> 100 µM (inactive)	> 100 µM (inactive)	24.4 µM (inactive)	> 100 µM (inactive)
CC12C3C4C1C1C2C3C41CO (centres undefined)	> 100 µM (inactive)	> 100 µM (inactive)	> 100 µM (inactive)	> 100 µM (inactive)	> 100 µM (inactive)	> 100 µM (inactive)	> 100 µM (inactive)		> 100 µM (inactive)	> 100 µM (inactive)	> 100 µM (inactive)	> 100 µM (inactive)	> 100 µM (inactive)	> 100 µM (inactive)	> 100 µM (inactive)	> 100 µM (inactive)	> 100 µM (inactive)	> 100 µM (inactive)	> 100 µM (inactive)	
CC1(C)[C@H](C(=O)O)N2C(=O)[C@@H](NS(=O)(=O)c3ccc([N+](=O)[O-])cc3)[C@H]2S1(=O)=O	> 100 µM (inactive)	> 100 µM (inactive)	> 100 µM (inactive)	> 100 µM (inactive)	> 100 µM (inactive)	> 100 µM (inactive)	> 100 µM (inactive)	> 100 µM (inactive)	> 100 µM (inactive)	> 100 µM (inactive)	> 100 µM (inactive)	> 100 µM (inactive)	> 100 µM (inactive)	> 100 µM (inactive)	> 100 µM (inactive)	> 100 µM (inactive)	> 100 µM (inactive)	> 100 µM (inactive)	> 100 µM (inactive)	
COc1ccc(C(=O)c2c3cc(OC)c(OC)c(OC)c3cc[n+]2C)cc1	31.6 µM (inactive)		29.6 µM (inactive)	> 100 µM (inactive)			34.4 µM (inactive)	37.9 µM (inactive)	28 µM (inactive)	38.4 µM (inactive)	31 µM (inactive)	40 µM (inactive)	17.8 µM (inactive)	21.1 µM (inactive)	20.1 µM (inactive)			36.7 µM (inactive)	39.6 µM (inactive)	10.2 µM (inactive)
COc1c(CC(C)O)c2c3c(CC(C)O)c(OC)c(=O)c4c(O)cc5c(c6c(cc(O)c(c1=O)c62)OCO5)c43 (centres undefined) [CERCOSPORIN]	0.45 µM (active)	1.87 µM (inactive)	1.29 µM (inactive)	2.88 µM (inactive)	1.34 µM (inactive)	6.01 µM (inactive)	2.1 µM (inactive)	1.81 µM (inactive)	1.39 µM (inactive)	4.14 µM (inactive)	2.49 µM (inactive)	1.72 µM (inactive)	1.65 µM (inactive)	1.55 µM (inactive)	2 µM (inactive)	1.78 µM (inactive)	0.968 µM (active)		1.27 µM (inactive)	2.1 µM (inactive)
